The values below come from patent US8362018B2, “Substituted imidazo[1,2-a]pyrazine compounds useful for the treatment of viral infections” (Biofocus DPI, Ltd., priority 2007, dated 2013).

Data set [1] has as its system HCV. The data set can be described thus: antiviral profiling, HCV in Huh7 cells (Table 14). Conditions: Hepatitis C virus, Huh-7. It counts as cell-based.
The nature of data set [2]: cytotoxicity CC50 in MDCK cells (Table 14). The conditions noted are these: dog.
A short description of data set [3]: cytotoxicity measurement (CC50), Table 13. The conditions noted are these: human, Huh7 cells. It counts as cell-based.
Data set [4] has as its system HRV-14. The data set can be described thus: antiviral activity, HRV-14 in HeLa cells (Table 15). It counts as cell-based, human rhinovirus 14 (HRV-14). Conditions: Rhinovirus B, HRV14; HRV-14 (HeLa cells).
In data set [5] the test system is HCV replicon. Put plainly: anti-viral assay (EC50), Table 13. It counts as cell-based. The conditions noted are these: anti-viral assays. An excerpt:
The ability of a compound to inhibit HCV replication can be measured in vitro or using animal models using models and assays well known to those of skill in the art (e.g. Pietschmann et al, Clin Liver Dis. 7(1)c23-43, 2003). In vitro techniques for measuring the ability of a compound to inhibit HCV replication involve using HCV or an HCV replicon. Because HCV is difficult to grow in culture, particular in vitro techniques employ an HCV replicon.
An HCV replicon is an RNA molecule able to autonomously replicate in a cultured cell, such as Huh7. The HCV replicon expresses the HCV derived components of the replication machinery and contains cis-elements required for replication in a cultured cell. […]

The nature of data set [6]: in vitro. Conditions: African green monkey.
Data set [7] deals with CVB-2. The data set can be described thus: antiviral profiling, CVB-2 in Vero cells (Table 14). It counts as cell-based, coxsackie B virus.
Data set [8] deals with Vero. Put plainly: cytotoxicity CC50 in Vero cells (Table 14).
Data set [9] relates to HSV-1. Put plainly: antiviral profiling, HSV-1 in Vero cells (Table 14). It counts as cell-based. The conditions noted are these: Human alphaherpesvirus 1; HSV-1, Vero cells.
Data set [10] concerns RSV. The data set can be described thus: antiviral profiling, RSV in Vero cells (Table 14). It counts as cell-based. The conditions noted are these: human respiratory syncytial virus.
The test system of data set [11] is HRV-2. Put plainly: antiviral activity, HRV-2 in HeLa cells (Table 15). It counts as cell-based, human rhinoviruses (HRV). Conditions: Rhinovirus A, HRV2; HRV-2 (HeLa cells).
Data set [12] deals with HeLa cells. Put plainly: cytotoxicity CC50 in HeLa cells (Table 15). It counts as cell-based.
Data set [13] in a line: cytotoxicity CC50 in HeLa cells (Table 15). It counts as cell-based. Conditions: human, HRV-2 column.
Data set [14] can be described thus: in vitro. The conditions noted are these: Syrian hamster.
Data set [15] is described as follows: cytotoxicity CC50 in Huh7 cells (Table 14). It counts as cell-based. The conditions noted are these: human, HCV column.
Data set [16] deals with VSV. Put plainly: microbe, parasite or virus in culture. It counts as cell-based. Conditions: Vesicular stomatitis virus, Vero.
The nature of data set [17]: cytotoxicity CC50 in MT-4 cells (Table 14). It counts as cell-based. Conditions: human, HIV column.
Data set [18] relates to HRV clinical isolate. Put plainly: antiviral activity, HRV clinical isolate in HeLa cells (Table 15). It counts as cell-based, human rhinoviruses (HRV). Conditions: Enterovirus.
Data set [19] concerns YFV. Put plainly: microbe, parasite or virus in culture. It counts as cell-based. Conditions: Yellow fever virus, BHK-21.
The test system of data set [20] is HIV. Put plainly: antiviral profiling, HIV in MT-4 cells (Table 14). It counts as cell-based. Conditions: Human immunodeficiency virus 1, MT4.
Data set [21] relates to Sb-1. Put plainly: microbe, parasite or virus in culture. It counts as cell-based, poliovirus. Conditions: Enterovirus C, Vero.
The subject of data set [22] is Influenza. The data set can be described thus: antiviral profiling, Influenza in MDCK cells (Table 14). It counts as cell-based.
The subject of data set [23] is Huh7. The data set can be described thus: cytotoxicity measurement (CC50), Table 13. It counts as cell-based.

Broadly, the EC50 is the concentration that produces a half-maximal response. For `NS(=O)(=O)c1ccc(CNc2nccn3c(-c4ccc(O)cc4)cnc23)cc1` [Compound 1, 4-{[3-(4-Hydroxy-phenyl)-imidazol[1,2-a]pyrazin-8-ylamino]-methyl}-benzenesulfonamide], the EC50 is < 1 µM in data set [1]; < 1 µg/mL in data set [4]; < 1 µM in [5] (Hepatitis C virus); < 1 µM in data set [7]; > 20 µM in data set [9]; > 20 µM in data set [10]. For the same compound, the half-maximal effective concentration (EC50) is < 1 µg/mL in [11]; > 20 µM in data set [16]; < 1 µg/mL in data set [18]; 1 to 20 µM in data set [19]; 1 to 20 µM in data set [20]; < 1 µM in data set [21]. Moreover, the EC50 in data set [22] is > 20 µM. Also, the CC50 in data set [2], in [3], in data set [6], in data set [6] (Vero cells), in data set [8] (HSV-1) and in data set [8] (RSV column) was > 35 µM each time. Further, the CC50 in data set [8] (Sb-1 column) was > 35 µM; in [13], > 35 µg/mL; in data set [14] it was < 35 µM; in [15], > 35 µM; in [17], < 35 µM. Besides, the “CC50(μg/mL)” value in data set [12] (HRV clinical isolate column) and in [12] (HRV-14 column) was “* (>35 μg/mL)” each time.
Regarding `CC(=O)Nc1cccc(-c2cnc3c(NCc4ccc(S(N)(=O)=O)cc4)nccn23)c1` [Compound 87], the CC50 in data set [3] is < 35 µM. The compound further yielded a concentration giving a half-maximal response (EC50) in data set [5] (Hepatitis C virus) of 1 to 20 µM.
On the same counts, the results for `Cc1cc(-c2cnc3c(NCc4ccc(S(N)(=O)=O)cc4)nccn23)ccc1O` [Compound 88, 4-{[3-(4-Hydroxy-3-methyl-phenyl)-imidazo[1,2-a]pyrazin-8-ylamino]-methyl}-benzenesulfonamide] are > 35 µM and < 1 µM.
For `NS(=O)(=O)c1ccc(CNc2nccn3c(-c4ccc(O)c(O)c4)cnc23)cc1` [Compound 89] the same measures were > 35 µM and > 20 µM.
As to `NS(=O)(=O)c1ccc(CNc2nccn3c(-c4ccc(O)cc4F)cnc23)cc1` [Compound 91, 4-{[3-(2-Fluoro-4-hydroxy-phenyl)-imidazo[1,2-a]pyrazin-8-ylamino]-methyl}-benzenesulfonamide], the CC50 in [3] was > 35 µM. Besides, in data set [5] (Hepatitis C virus), the EC50 was < 1 µM.
On the same counts, the results for `COc1ccc(-c2cnc3c(NCc4ccc(C(=O)O)cc4)nccn23)cc1OC` [Compound 92, 4-{[3-(3,4-Dimethoxy-phenyl)-imidazo[1,2-a]pyrazin-8-ylamino]-methyl}-benzoic acid] are > 35 µM and 1 to 20 µM.
On the same counts, the results for `COc1ccc(-c2cnc3c(NCc4ccc(CO)cc4)nccn23)cc1OC` [Compound 93, (4-{[3-(3,4-Dimethoxy-phenyl)-imidazol[1,2-a]pyrazin-8-ylamino]-methyl}-phenyl)-methanol] are > 35 µM and 1 to 20 µM.
Take `NC(=O)c1cc(-c2cnc3c(NCc4ccc(S(N)(=O)=O)cc4)nccn23)ccc1O` [Compound 94, 2-Hydroxy-5-[8-(4-sulfamoyl-benzylamino)-imidazo[1,2-a]pyrazin-3-yl]-benzamide]: the CC50 in data set [3] is > 35 µM. Moreover, the EC50 in data set [5] (Hepatitis C virus) lay in the range of 1 to 20 µM.
In the case of `NS(=O)(=O)c1cccc(CNc2nccn3c(-c4ccc(O)cc4)cnc23)c1` [Compound 95, 3-{[3-(4-Hydroxy-phenyl)-imidazol[1,2-a]pyrazin-8-ylamino]-methyl}-benzenesulfonamide], in [23], the CC50 is < 35 µM. This compound also had an EC50 in data set [5] of 1 to 20 µM.
In the case of `Oc1ccc(-c2cnc3c(Nc4ccccc4)nccn23)cc1` [Compound 96], the CC50 in data set [3] was > 35 µM. In addition, the EC50 in [5] (Hepatitis C virus) was > 20 µM.
With `COc1ccc(-c2cnc3c(NCc4ccc(Cl)cc4)nccn23)cc1OC` [Compound 97], the CC50 in [3] was < 35 µM. In data set [5] (Hepatitis C virus), this compound registered an EC50 of 1 to 20 µM.
On the same counts, the results for `CC(C)(C)c1ccc(CNc2nccn3c(-c4ccc(O)cc4)cnc23)cc1` [Compound 98] are < 35 µM and 1 to 20 µM.
Turning to `Oc1ccc(-c2cnc3c(NCc4cccc(Cl)c4)nccn23)cc1` [Compound 99], in data set [3], the CC50 was < 35 µM. The same compound had a half-maximal effective concentration (EC50) in data set [5] (Hepatitis C virus) of 1 to 20 µM.
Turning to `CNS(=O)(=O)c1ccc(CNc2nccn3c(-c4ccc(OC)cc4)cnc23)cc1` [Compound 100], the CC50 in [3] is > 35 µM. The concentration giving a half-maximal response (EC50) in data set [5] (Hepatitis C virus) lay in the range of 1 to 20 µM.
As for `CCNS(=O)(=O)c1ccc(CNc2nccn3c(-c4ccc(OC)cc4)cnc23)cc1` [Compound 101], the CC50 in data set [3] was > 35 µM. Further, the concentration for a half-maximal effect (EC50) in [5] (Hepatitis C virus) lay in the range of 1 to 20 µM.
On the same counts, the results for `CCNS(=O)(=O)c1ccc(CNc2nccn3c(-c4ccc(O)cc4)cnc23)cc1` [Compound 102] are > 35 µM and 1 to 20 µM.
For `CNS(=O)(=O)c1ccc(CNc2nccn3c(-c4ccc(O)cc4)cnc23)cc1` [Compound 103] the same measures were > 35 µM and 1 to 20 µM.
Turning to `Cc1nc2c(NCc3ccc(S(N)(=O)=O)cc3)nccn2c1-c1ccc(O)cc1` [Compound 104, 4-{[3-(4-Hydroxy-phenyl)-2-methyl-imidazo[1,2-a]pyrazin-8-ylamino]-methyl}-benzenesulfonamide], in data set [3], the CC50 was > 35 µM. This compound also registered a concentration giving a half-maximal response (EC50) in data set [5] (Hepatitis C virus) of 1 to 20 µM.
For the compound `COc1cc(-c2c(C)nc3c(NCc4ccc(S(N)(=O)=O)cc4)nccn23)ccc1O` [Compound 105], in [3], the CC50 is > 35 µM. In addition, in [5] (Hepatitis C virus), the EC50 is < 1 µM.
Consider `Cc1nc2c(NCc3ccc(S(N)(=O)=O)cc3)nccn2c1-c1ccc(O)c(F)c1` [Compound 106], for which the CC50 in data set [3] is > 35 µM; in data set [13], > 35 µg/mL. The EC50 in data set [4] was < 1 µg/mL; in data set [5] (Hepatitis C virus), < 1 µM; in [11], < 1 µg/mL; in [18], < 1 µg/mL. The “CC50(μg/mL)” value in data set [12] (HRV clinical isolate column) and in data set [12] (HRV-14 column) was “* (>35 μg/mL)” each time.
For `Cc1nc2c(NCc3ccc(S(N)(=O)=O)cc3)nccn2c1-c1ccc(O)c([N+](=O)[O-])c1` [Compound 107], the CC50 in [3] is > 35 µM. Moreover, the EC50 in data set [5] (Hepatitis C virus) was 1 to 20 µM.
Consider `Cc1cnc(NCc2ccc(S(N)(=O)=O)cc2)c2ncc(-c3ccc(O)cc3)n12` [Compound 108, 4-{[3-(4-Hydroxy-phenyl)-5-methyl-imidazo[1,2-a]pyrazin-8-ylamino]-methyl}-benzenesulfonamide], for which the CC50 in data set [3] was < 35 µM. Besides, the EC50 in data set [5] (Hepatitis C virus) was < 1 µM.
On to `COc1cc(-c2cnc3c(NCc4ccc(S(N)(=O)=O)cc4)ncc(C)n23)ccc1O` [Compound 109], for which, in data set [3], the CC50 is < 35 µM. The EC50 in data set [5] (Hepatitis C virus) is < 1 µM.
On the same counts, the results for `Cc1cn2c(-c3ccc(O)cc3)cnc2c(NCc2ccc(S(N)(=O)=O)cc2)n1` [Compound 110, 4-{[3-(4-Hydroxy-phenyl)-6-methyl-imidazo[1,2-a]pyrazin-8-ylamino]-methyl}-benzenesulfonamide] are < 35 µM and < 1 µM.
On the same counts, the results for `Cc1cn2c(-c3ccc(O)c(F)c3)cnc2c(NCc2ccc(S(N)(=O)=O)cc2)n1` [Compound 111] are > 35 µM and < 1 µM.
On the same counts, the results for `COc1cc(-c2cnc3c(NCc4ccc(S(N)(=O)=O)cc4)nc(C)cn23)ccc1O` [Compound 112] are < 35 µM and < 1 µM.
Turning to `NS(=O)(=O)c1ccc(CNc2nc(Br)cn3c(Br)cnc23)cc1` [Compound 113, 4-[(3,6-Dibromo-imidazo[1,2-a]pyrazin-8-ylamino)-methyl]-benzenesulfonamide], the CC50 in data set [3] is > 35 µM. In data set [5] (Hepatitis C virus), the EC50 was > 20 µM.
Take `NS(=O)(=O)c1ccc(CNc2nc(-c3ccc(O)cc3)cn3c(-c4ccc(O)cc4)cnc23)cc1` [Compound 114, 4-{[3,6-Bis-(4-hydroxy-phenyl)-imidazo[1,2-a]pyrazin-8-ylamino]-methyl}-benzenesulfonamide]: the CC50 in data set [3] was < 35 µM. Further, in data set [5] (Hepatitis C virus), the EC50 is < 1 µM.
